Test results reported in BigSolDB 2.1.

NS(=O)(=O)c1ccccc1
Conditions | solubility (mole fraction)
in acetone, 273.15 K | 0.117
in acetone, 279.15 K | 0.123
in acetone, 283.45 K | 0.13
in acetone, 288.95 K | 0.138
in acetone, 293.25 K | 0.145
in acetone, 298.85 K | 0.156
in acetone, 303.15 K | 0.165
in acetone, 308.15 K | 0.176
in acetone, 313.15 K | 0.188
in acetone, 317.65 K | 0.201
in acetone, 323.15 K | 0.217
in acetonitrile, 273.15 K | 0.0348
in acetonitrile, 279.15 K | 0.0396
in acetonitrile, 283.45 K | 0.0446
in acetonitrile, 288.95 K | 0.0507
in acetonitrile, 293.25 K | 0.0568
in acetonitrile, 298.85 K | 0.0649
in acetonitrile, 303.15 K | 0.0723
in acetonitrile, 308.15 K | 0.0817
in acetonitrile, 313.15 K | 0.0928
in acetonitrile, 317.65 K | 0.104
in acetonitrile, 323.15 K | 0.118
in cyclohexanone, 273.15 K | 0.114
in cyclohexanone, 279.15 K | 0.12
in cyclohexanone, 283.85 K | 0.126
in cyclohexanone, 289.15 K | 0.134
in cyclohexanone, 293.75 K | 0.142
in cyclohexanone, 299.15 K | 0.151
in cyclohexanone, 303.75 K | 0.161
in cyclohexanone, 309.15 K | 0.171
in cyclohexanone, 313.35 K | 0.181
in cyclohexanone, 319.15 K | 0.195
in cyclohexanone, 324.45 K | 0.21
in cyclopentanone, 273.15 K | 0.14
in cyclopentanone, 279.15 K | 0.146
in cyclopentanone, 283.85 K | 0.152
in cyclopentanone, 289.15 K | 0.16
in cyclopentanone, 293.75 K | 0.167
in cyclopentanone, 299.15 K | 0.177
in cyclopentanone, 303.75 K | 0.187
in cyclopentanone, 309.15 K | 0.201
in cyclopentanone, 313.35 K | 0.21
in cyclopentanone, 319.15 K | 0.228
in cyclopentanone, 324.45 K | 0.245
in dichloromethane, 273.15 K | 0.00134
in dichloromethane, 279.15 K | 0.00175
in dichloromethane, 283.45 K | 0.00214
in dichloromethane, 288.95 K | 0.00278
in dichloromethane, 293.25 K | 0.00335
in dichloromethane, 298.85 K | 0.00424
in dichloromethane, 303.15 K | 0.00495
in dichloromethane, 308.15 K | 0.00602
in dichloromethane, 312.15 K | 0.00691
in ethanol, 273.15 K | 0.0159
in ethanol, 279.15 K | 0.0182
in ethanol, 283.45 K | 0.0199
in ethanol, 288.95 K | 0.0231
in ethanol, 293.25 K | 0.0261
in ethanol, 298.85 K | 0.0307
in ethanol, 303.15 K | 0.0355
in ethanol, 308.15 K | 0.041
in ethanol, 313.15 K | 0.048
in ethanol, 317.65 K | 0.0547
in ethanol, 323.15 K | 0.0635
in ethyl acetate, 273.15 K | 0.0325
in ethyl acetate, 279.15 K | 0.036
in ethyl acetate, 283.45 K | 0.0389
in ethyl acetate, 288.95 K | 0.0429
in ethyl acetate, 293.25 K | 0.0467
in ethyl acetate, 298.85 K | 0.0517
in ethyl acetate, 303.15 K | 0.0563
in ethyl acetate, 308.15 K | 0.0615
in ethyl acetate, 313.15 K | 0.0682
in ethyl acetate, 317.65 K | 0.0736
in ethyl acetate, 323.15 K | 0.082
in ethyl formate, 273.15 K | 0.018
in ethyl formate, 279.15 K | 0.0204
in ethyl formate, 283.45 K | 0.0228
in ethyl formate, 288.95 K | 0.026
in ethyl formate, 293.25 K | 0.0289
in ethyl formate, 298.85 K | 0.0327
in ethyl formate, 303.15 K | 0.0367
in ethyl formate, 308.15 K | 0.0416
in ethyl formate, 313.15 K | 0.047
in ethyl formate, 317.65 K | 0.0526
in ethyl formate, 323.15 K | 0.0596
in isobutanol, 273.15 K | 0.00387
in isobutanol, 279.15 K | 0.0045
in isobutanol, 283.85 K | 0.00537
in isobutanol, 289.15 K | 0.00666
in isobutanol, 293.75 K | 0.00808
in isobutanol, 299.15 K | 0.00996
in isobutanol, 303.75 K | 0.012
in isobutanol, 309.15 K | 0.0148
in isobutanol, 313.35 K | 0.0176
in isobutanol, 319.15 K | 0.0214
in isobutanol, 324.45 K | 0.0255
in isopentanol, 273.15 K | 0.00419
in isopentanol, 279.15 K | 0.00488
in isopentanol, 283.85 K | 0.00557
in isopentanol, 289.15 K | 0.00683
in isopentanol, 293.75 K | 0.00804
in isopentanol, 299.15 K | 0.00999
in isopentanol, 303.75 K | 0.0119
in isopentanol, 309.15 K | 0.0148
in isopentanol, 313.35 K | 0.0172
in isopentanol, 319.15 K | 0.021
in isopentanol, 324.45 K | 0.0249
in isopropanol, 273.15 K | 0.0076
in isopropanol, 279.15 K | 0.00834
in isopropanol, 283.85 K | 0.00964
in isopropanol, 289.15 K | 0.0119
in isopropanol, 293.75 K | 0.0141
in isopropanol, 299.15 K | 0.0172
in isopropanol, 303.75 K | 0.0213
in isopropanol, 309.15 K | 0.0261
in isopropanol, 313.35 K | 0.0305
in isopropanol, 319.15 K | 0.0371
in isopropanol, 324.45 K | 0.0444
in methanol, 273.15 K | 0.0295
in methanol, 279.15 K | 0.0325
in methanol, 283.45 K | 0.0357
in methanol, 288.95 K | 0.041
in methanol, 293.25 K | 0.046
in methanol, 298.85 K | 0.0536
in methanol, 303.15 K | 0.061
in methanol, 308.15 K | 0.0699
in methanol, 313.15 K | 0.0808
in methanol, 317.65 K | 0.0923
in methanol, 323.15 K | 0.107
in methyl acetate, 273.15 K | 0.0423
in methyl acetate, 279.15 K | 0.0467
in methyl acetate, 283.45 K | 0.0503
in methyl acetate, 288.95 K | 0.0556
in methyl acetate, 293.25 K | 0.0606
in methyl acetate, 298.85 K | 0.0677
in methyl acetate, 303.15 K | 0.0743
in methyl acetate, 308.15 K | 0.0823
in methyl acetate, 313.15 K | 0.0915
in methyl acetate, 317.65 K | 0.101
in methyl acetate, 323.15 K | 0.113
in n-butanol, 273.15 K | 0.00578
in n-butanol, 279.15 K | 0.00679
in n-butanol, 283.85 K | 0.00798
in n-butanol, 289.15 K | 0.00946
in n-butanol, 293.75 K | 0.011
in n-butanol, 299.15 K | 0.0135
in n-butanol, 303.75 K | 0.016
in n-butanol, 309.15 K | 0.0195
in n-butanol, 313.35 K | 0.0226
in n-butanol, 319.15 K | 0.0276
in n-butanol, 324.45 K | 0.0323
in n-pentanol, 273.15 K | 0.00474
in n-pentanol, 279.15 K | 0.00538
in n-pentanol, 283.85 K | 0.00616
in n-pentanol, 289.15 K | 0.00727
in n-pentanol, 293.75 K | 0.00894
in n-pentanol, 299.15 K | 0.0111
in n-pentanol, 303.75 K | 0.0131
in n-pentanol, 309.15 K | 0.0164
in n-pentanol, 313.35 K | 0.0188
in n-pentanol, 319.15 K | 0.0232
in n-pentanol, 324.45 K | 0.0278
in n-propanol, 273.15 K | 0.00806
in n-propanol, 279.15 K | 0.00907
in n-propanol, 283.85 K | 0.0103
in n-propanol, 289.15 K | 0.0122
in n-propanol, 293.75 K | 0.0143
in n-propanol, 299.15 K | 0.0175
in n-propanol, 303.75 K | 0.0208
in n-propanol, 309.15 K | 0.0254
in n-propanol, 313.35 K | 0.0293
in n-propanol, 319.15 K | 0.036
in n-propanol, 324.45 K | 0.0423
